{"source": "patent US20140328840A1", "about": "“MARKER AND TARGET FOR RESPONSIVENESS AND RESISTANCE TO CANCER AGENTS” (The Provost, Fellows, Foundation Scholars, and the Other …, priority 2011, published 2014)", "key": {"SKBR3-Ag cells": {"tested_on": "SKBR3-Ag cells", "experiment": "Proliferation assay (acid phosphatase), aged parent SKBR3", "format": "cell-based", "conditions": "Homo sapiens, SK-BR-3, 120 h, read-out: concentration that inhibits 50% of proliferation (IC50), five days", "description": "(§1) SKBR3, HCC1954, MDA-MB-361, T47D cells, obtained from ATCC, were cultured in RPMI-1640 (Sigma-Aldrich) with 10% FCS (PAA) and 1% L-glutamine. […] Lapatinib-resistant SKBR3 and HCC1954 cells (SKBR3-LR, HCC1954-LR) were established by continuously exposing cells to Lapatinib, starting with 5 nM and incrementally increasing to 250 nM over 6 months. Neratinib-resistant SKBR3 and HCC1954 cells (SKBR3-NR, HCC1954-NR) resulted from continuously exposing cells to Neratinib, starting with 10 nM and incrementally increasing to 250 nM over 6 months.\n(§2) Cells with acquired-resistance compared to aged-parent cells and NmU cDNA-versus mock-transfected cells (HCC1954 variants, 2×10^3 cells/well; SKBR3 variants, 5×10^3 cells/well) were seeded for 24 hours prior to drug additions. […] Five days later, acid phosphatase assay was performed as previously detailed (3)."}, "T47D": {"tested_on": "T47D", "conditions": "cited from earlier work"}, "SKBR3-LR cells": {"tested_on": "SKBR3-LR cells", "experiment": "Proliferation assay (acid phosphatase), Lapatinib-resistant SKBR3", "format": "cell-based", "description": "as §1, §2"}, "NmU mRNA in SKBR3 cells": {"tested_on": "NmU mRNA in SKBR3 cells", "experiment": "Short-term drug exposure, qPCR of NmU mRNA in conditioned medium and cells", "format": "cell-based", "conditions": "SKBR3, 1 μM, 48 hours, vs untreated control CM", "description": "(§3) Conditioned medium (CM) was collected, centrifuged and filtered, as previously described (1-2), prior to NmU mRNA and protein analysis.\n(§4) Total RNA was isolated from cell lines and CM using TriReagent (Sigma-Aldrich). In order to remove any potential contaminating genomic DNA, RNA was treated with DNase enzymes and minus reverse transcriptase enzyme controls verified no DNA/pseudogene contamination of starting material. cDNA was prepared from 500ng cell-derived and 4 μl CM-derived total RNA, respectively."}, "[1]": {"tested_on": "NmU mRNA in HCC1954 cells", "experiment": "Short-term drug exposure, qPCR of NmU mRNA in conditioned medium and cells", "format": "cell-based", "conditions": "48 hours; for induced NmU mRNA in CM / induced NmU mRNA in cells: HCC1954, 0.5 μM, vs untreated control", "description": "as §3, §4"}, "SKBR3 cells": {"tested_on": "SKBR3 cells", "conditions": "cited from earlier work"}, "HCC1954-LR cells": {"tested_on": "HCC1954-LR cells", "experiment": "Proliferation assay (acid phosphatase), Lapatinib-resistant HCC1954", "format": "cell-based", "description": "as §1, §2"}, "T47D cells": {"tested_on": "T47D cells", "experiment": "Proliferation, previously determined IC50", "format": "cell-based", "conditions": "Homo sapiens, read-out: approximate IC50 concentration", "description": "(§5) To investigate if knock-down of NmU affected response to HER-targeting, cell lines with acquired Lapatinib-resistance (SKBR3-LR, HCC1954-LR) and innately unresponsive (MDA-MB-361, T47D) were assessed. […] Similarly, fixed concentrations of Neratinib (1 μM) and Afatinib (0.5 μM) were used. These were cultured for 72 hours and subsequently assessed using acid phosphate analysis."}, "MDA-MB-361 cells": {"tested_on": "MDA-MB-361 cells", "experiment": "Proliferation, previously determined IC50", "format": "cell-based", "conditions": "Homo sapiens; MDA-MB-361, previously determined; read-out: approximate IC50 concentration", "description": "as §5"}, "[2]": {"tested_on": "SKBR3-LR, HCC1954-LR, T47D and MDA-MB-361 cells", "experiment": "Effects of NmU siRNAs with HER-targeted drugs on proliferation (acid phosphatase)", "format": "cell-based", "description": "(§6) Two siRNAs, designated NmU-1 (SEQ ID NO: 3; 5′-[…]-3′) and NmU-2 (SEQ ID NO: 4; 5′-[…]-3′) (s225456 and s21351, respectively, Ambion, UK), (30 nM) were used to target NmU. Scrambled siRNA (SCR) (AM4611, Ambion, UK) was used as negative control. Transient transfections were harvested 72 hours post-transfection for RNA and protein extraction. NmU full-length cDNA was sub-cloned from pOTB7 (clone ID3502168, Open Biosystems, Ireland) by PCR into pcDNA 3.1(+) zeo-plasmid vector (Invitrogen, Ireland). The construct was verified by DNA sequencing. Mock controls used were of pcDNA3.1(+) plasmid lacking NmU cDNA. Lipofectamine 2000 (Invitrogen, Ireland) was used for transfection following the manufacturer's instructions. Stable transfectants were established by selecting with zeocin (50 μg/ml and 300 μg/ml for HCC1954 and SKBR3 transfected cells, respectively; based on initial assessment of the toxicity of zeocin on these cells) (Invitrogen, Ireland).\nas §5"}, "SKBR3-NmU cells": {"tested_on": "SKBR3-NmU cells", "experiment": "Proliferation assay, NmU cDNA- versus mock-transfected cells", "format": "cell-based", "conditions": "SKBR3-NmU vs SKBR3-mock", "description": "as §6, §2"}, "HCC1954-NmU cells": {"tested_on": "HCC1954-NmU cells", "experiment": "Proliferation assay, NmU cDNA- versus mock-transfected cells", "format": "cell-based", "conditions": "HCC1954-NmU vs HCC1954-mock", "description": "as §6, §2"}, "HCC1954-Ag cells": {"tested_on": "HCC1954-Ag cells", "experiment": "Proliferation assay (acid phosphatase), aged parent HCC1954", "format": "cell-based", "conditions": "Homo sapiens, 120 h, read-out: concentration that inhibits 50% of proliferation (IC50), five days", "description": "as §1, §2"}, "HCC1954 cells [3]": {"tested_on": "HCC1954 cells", "experiment": "Resistance to HER-targeted drugs after exogenous NmU treatment", "format": "cell-based", "conditions": "HCC1954, exogenous NmU (NmU-25) 48 hours; all drugs", "description": "(§7) To assess if functional NmU receptors are expressed on cells, SKBR3 and HCC1954, (1×10^6 cells) were seeded in 25 cm^2 flask, allowed attach overnight and subsequently treated with 1 μM of NmU-25 (Bachem, Switzerland) for 24-48 hours."}, "MDA-MB-361": {"tested_on": "MDA-MB-361", "conditions": "cited from earlier work"}, "HCC1954 cells [4]": {"tested_on": "HCC1954 cells", "conditions": "cited from earlier work"}, "EGFR": {"tested_on": "EGFR", "experiment": "Exogenous NmU treatment, EGFR expression", "format": "cell-based", "conditions": "1 μM, 24-48 hours", "description": "as §7\n(§8) Total cellular proteins (30-40 μg, depending on the specific protein's abundance; but constant for any given protein) were resolved on 6-10% SDS-PAGE and transferred to PVDF membranes (Millipore, Ireland). Primary antibodies used included EGFR (Neomarker); HER2 (Calbiochem); Akt, p-Akt (Cell Signalling); NmU-R1 (Sigma-Aldrich); NmU-R2 (LifeSpan Biosciences); β-actin (Sigma-Aldrich). Membranes were incubated with appropriate horseradish peroxidase-conjugated secondary antibodies (Cell Signalling) and proteins were visualized by chemiluminescence (Millipore). Detection was performed with a Chemidoc exposure system (Bio-Rad Laboratories). ELISA kit for NmU (Peninsula Laboratories, US), HER2 (Calbiochem, US), p-HER2, EGFR, p-EGFR (R&D Systems, US) were used according to the manufacturer's instructions."}, "HER2": {"tested_on": "HER2", "experiment": "Exogenous NmU treatment, HER2 expression", "format": "cell-based", "conditions": "1 μM, 24-48 hours; SKBR3 and HCC1954 cells", "description": "as §7, §8"}}, "data": [{"molecule": "CS(=O)(=O)CCNCc1ccc(-c2ccc3ncnc(Nc4ccc(OCc5cccc(F)c5)c(Cl)c4)c3c2)o1", "note": "[Lapatinib]", "values": [{"measurement": "IC50", "setting": "SKBR3-Ag cells", "result": 90, "unit": "nM"}, {"measurement": "innate sensitivity/resistance", "setting": "T47D", "result": "unresponsive"}, {"measurement": "IC50", "setting": "SKBR3-LR cells; Homo sapiens, SK-BR-3, 120 h, read-out: concentration that inhibits 50% of proliferation (IC50), SKBR3-LR, five days", "result": "~3000", "unit": "nM"}, {"measurement": "fold resistance", "setting": "SKBR3-LR cells; SKBR3-LR in relation to SKBR3-Ag", "result": "29.8±2.2", "unit": "fold"}, {"measurement": "levels of NmU mRNA detectable in CM", "setting": "NmU mRNA in SKBR3 cells", "result": "significantly higher"}, {"measurement": "levels of NmU mRNA detectable in CM", "setting": "[1]; HCC1954, 1 μM, vs untreated control CM", "result": "significantly higher"}, {"measurement": "innate sensitivity/resistance", "setting": "SKBR3 cells", "result": "sensitive"}, {"measurement": "fold resistance", "setting": "HCC1954-LR cells; HCC1954-LR compared to HCC1954-Ag", "result": "19.1±2.8", "unit": "fold"}, {"measurement": "IC50", "setting": "HCC1954-LR cells; Homo sapiens, HCC1954, 120 h, read-out: concentration that inhibits 50% of proliferation (IC50), HCC1954-LR, five days", "result": "~5000", "unit": "nM"}, {"measurement": "IC50", "setting": "T47D cells", "result": "~5000", "unit": "nM"}, {"measurement": "IC50", "setting": "MDA-MB-361 cells", "result": "~1000", "unit": "nM"}, {"measurement": "further inhibition of proliferation with NmU knock-down", "setting": "[2]; drug at IC50 concentration, 72 hours, NmU-1/NmU-2 siRNA vs SCR, range over cell lines and siRNAs", "result": "12-49%"}, {"measurement": "anti-proliferative effects in NmU-transfected compared to mock-transfected cells", "setting": "SKBR3-NmU cells", "result": "significantly compromised"}, {"measurement": "anti-proliferative effects in NmU-transfected compared to mock-transfected cells", "setting": "HCC1954-NmU cells", "result": "significantly compromised"}, {"measurement": "IC50", "setting": "HCC1954-Ag cells", "result": 300, "unit": "nM"}, {"measurement": "level of resistance induced by exogenous NmU", "setting": "HCC1954 cells [3]", "result": 1.1, "unit": "fold"}, {"measurement": "innate sensitivity/resistance", "setting": "MDA-MB-361", "result": "resistant"}, {"measurement": "innate sensitivity/resistance", "setting": "HCC1954 cells [4]", "result": "sensitive"}]}, {"molecule": "CCOc1cc2ncc(C#N)c(Nc3ccc(OCc4ccccn4)c(Cl)c3)c2cc1NC(=O)/C=C/CN(C)C", "note": "[Neratinib]", "values": [{"measurement": "induced NmU mRNA in CM", "setting": "[1]", "result": "3.6±1", "unit": "fold"}, {"measurement": "induced NmU mRNA in cells", "setting": "[1]", "result": "3.6±0.54", "unit": "fold"}, {"measurement": "inhibition at 1 µM", "setting": "[2]; 72 h, read-out: further inhibition of growth with NmU knock-down", "result": "19 to 58", "unit": "%"}, {"measurement": "anti-proliferative effects in NmU-transfected compared to mock-transfected cells", "setting": "SKBR3-NmU cells", "result": "significantly compromised"}, {"measurement": "anti-proliferative effects in NmU-transfected compared to mock-transfected cells", "setting": "HCC1954-NmU cells", "result": "significantly compromised"}, {"measurement": "level of resistance induced by exogenous NmU", "setting": "HCC1954 cells [3]", "result": 1.1, "unit": "fold"}]}, {"molecule": "CN(C)C/C=C/C(=O)Nc1cc2c(Nc3ccc(F)c(Cl)c3)ncnc2cc1O[C@H]1CCOC1", "note": "[Afatinib]", "values": [{"measurement": "induced NmU mRNA in CM", "setting": "[1]", "result": "3.3±0.49", "unit": "fold"}, {"measurement": "induced NmU mRNA in cells", "setting": "[1]", "result": "3±0.38", "unit": "fold"}, {"measurement": "inhibition at 0.5 µM", "setting": "[2]; 0.5 μM, 72 hours, NmU-1/NmU-2 siRNA vs SCR, range over cell lines and siRNAs, read-out: further inhibition of growth with NmU knock-down", "result": "18 to 47", "unit": "%"}, {"measurement": "level of resistance induced by exogenous NmU", "setting": "HCC1954 cells [3]", "result": 1.1, "unit": "fold"}]}, {"molecule": "NmU-25: exogenous NeuromedinU 25 amino acid active peptide (Bachem) (FRVDEEFQSPFASQSRGYFLFRPRN)", "values": [{"measurement": "expression of EGFR protein", "setting": "EGFR; SKBR3 and HCC1954 cells", "result": "induced expression"}, {"measurement": "pEGFR", "setting": "EGFR; SKBR3 cells", "result": "induced expression"}, {"measurement": "expression of HER2 protein", "setting": "HER2", "result": "induced expression"}]}]}
